According to patent US12252524B2, “GIP/GLP1 co-agonist compounds” (Eli Lilly and Company, priority 2018, dated 2025):
Numbered stars: 1 amine (or outer) side, 2 acyl side, 3 side chain; on linkers, the order of the positions; unused ones are H or OH. Square brackets hold non-standard residues; d marks the D form. Side chains are listed from the residue outwards. Peptide text beside a SMILES is read from it. * marks the point of attachment. C20 diacid = O=C(O)CCCCCCCCCCCCCCCCCCC(=O)*; αMePhe(2-F) = C[C@](N)(Cc1ccccc1F)C(=O)O; γGlu = O=C(O)[C@H](CCC(=O)[*:2])N[*:1]; αMeY = C[C@](N)(Cc1ccc(O)cc1)C(=O)O; Aad = N[C@@H](CCCC(=O)O)C(=O)O; αMeL = CC(C)C[C@](C)(N)C(=O)O; AEEA = NCCOCCOCC(=O)O; Aib = CC(C)(N)C(=O)O

Columns and labels:
human Gcg receptor = target: T1, human Gcg receptor (Homo sapiens, UniProt P47871); assay: [125I]-Glucagon binding (SPA), human Gcg receptor; conditions: read-out: hGLcgR Ki, nM (SEM, n)
T1 construct: expressed in transfected cells; crude membranes
Outline: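 Cell pellets were lysed in hypotonic Tris buffer, pH 7.5, homogenized, and spun at low then high speed to give crude membranes. Ki was derived from the fitted IC50.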

human GIP receptor = target: T2, human GIP receptor (Homo sapiens, UniProt P48546); assay: [125I]-GIP binding (SPA), human GIP receptor; conditions: read-out: hGIPR Ki, nM (SEM, n)
T2 construct: expressed in transfected cells; crude membranes
T2 sequence (P48546 22-466): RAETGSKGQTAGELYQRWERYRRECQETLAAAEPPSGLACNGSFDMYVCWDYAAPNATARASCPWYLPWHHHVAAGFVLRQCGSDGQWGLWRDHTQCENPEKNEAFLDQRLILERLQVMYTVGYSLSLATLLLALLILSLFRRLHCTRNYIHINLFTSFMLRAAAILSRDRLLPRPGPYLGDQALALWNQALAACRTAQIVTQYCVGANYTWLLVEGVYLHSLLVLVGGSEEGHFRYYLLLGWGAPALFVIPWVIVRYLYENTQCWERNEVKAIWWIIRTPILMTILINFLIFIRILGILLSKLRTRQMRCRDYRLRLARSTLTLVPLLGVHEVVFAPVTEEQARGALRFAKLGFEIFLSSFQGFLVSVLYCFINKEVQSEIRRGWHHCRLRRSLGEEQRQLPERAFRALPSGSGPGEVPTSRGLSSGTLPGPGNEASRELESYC

[1] = target: human GLP-1 receptor (GLP-1R) (Homo sapiens, UniProt P43220); assay: cAMP pharmacological functional assay in presence of casein, hGLP-1R; type: cell-based; conditions: HEK293 cells expressing hGLP-1R, 0.1% Casein, geometric mean; read-out: hGLP1R cAMP Rel EC50 nM (SEM, n)
[2] = target: T3, gastric inhibitory peptide receptor (GIPR) (Homo sapiens, UniProt P48546); assay: cAMP pharmacological functional assay in presence of casein, hGIPR; type: cell-based; conditions: HEK293 cells expressing hGIPR, 0.1% Casein, geometric mean; read-out: hGIPR cAMP Rel EC50 nM (SEM, n)
T3 sequence (P48546 22-466): T2 sequence (P48546 22-466)

human GLP-1R = human GLP-1R (Homo sapiens, UniProt P43220); assay: [125I]-GLP-1 binding (SPA), human GLP-1 receptor; parameters: expressed in transfected cells; crude membranes; conditions: read-out: hGLP1R Ki, (nM) (SEM, n)
Outline: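 Ki values are geometric means with SEM over independent replicates on different days, derived from IC50s fitted by four-parameter nonlinear regression. The assay used crude cell membranes in HEPES buffer, pH 7.4, containing CaCl2, MgCl2, bacitracin and TWEEN-20.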

T1 sequence (P47871 26-477): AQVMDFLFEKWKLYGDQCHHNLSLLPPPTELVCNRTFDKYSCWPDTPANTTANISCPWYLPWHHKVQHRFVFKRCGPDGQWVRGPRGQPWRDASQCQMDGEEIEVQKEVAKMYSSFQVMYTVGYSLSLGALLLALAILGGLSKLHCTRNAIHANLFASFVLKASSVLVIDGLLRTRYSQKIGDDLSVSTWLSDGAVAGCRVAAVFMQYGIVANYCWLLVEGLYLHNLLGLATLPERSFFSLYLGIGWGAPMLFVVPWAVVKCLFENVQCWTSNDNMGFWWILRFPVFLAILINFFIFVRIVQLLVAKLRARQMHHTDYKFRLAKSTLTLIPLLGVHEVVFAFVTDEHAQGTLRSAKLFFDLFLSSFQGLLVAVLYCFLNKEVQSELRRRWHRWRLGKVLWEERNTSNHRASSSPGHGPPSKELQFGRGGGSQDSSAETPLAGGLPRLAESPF
Sequence of human GLP-1R (P43220 24-463): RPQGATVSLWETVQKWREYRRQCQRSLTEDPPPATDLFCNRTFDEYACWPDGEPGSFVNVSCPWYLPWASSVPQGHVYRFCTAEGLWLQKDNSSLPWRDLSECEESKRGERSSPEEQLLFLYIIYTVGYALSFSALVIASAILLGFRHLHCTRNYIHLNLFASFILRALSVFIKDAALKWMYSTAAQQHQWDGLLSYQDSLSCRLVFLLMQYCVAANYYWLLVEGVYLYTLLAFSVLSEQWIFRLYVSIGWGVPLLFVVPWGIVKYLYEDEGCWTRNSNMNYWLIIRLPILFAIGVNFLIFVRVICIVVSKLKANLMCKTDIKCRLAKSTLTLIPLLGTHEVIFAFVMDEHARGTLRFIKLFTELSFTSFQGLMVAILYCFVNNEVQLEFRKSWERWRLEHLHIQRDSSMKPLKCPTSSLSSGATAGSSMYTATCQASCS
Sequence of human GLP-1 receptor (GLP-1R) (P43220 24-463): as above

Compound	Ki (human Gcg receptor) [nM]	Ki (human GIP receptor) [nM]	EC50 [1] [nM]	EC50 [2] [nM]	Ki (human GLP-1R) [nM]
CC[C@H](C)[C@H](NC(=O)[C@H](CC(C)C)NC(=O)[C@H](Cc1ccc(O)cc1)NC(=O)[C@H](CCC(=O)O)NC(=O)[C@@H](NC(=O)[C@H](Cc1ccccc1)NC(=O)[C@H](C)NC(=O)[C@H](Cc1c[nH]cn1)NC(=O)[C@H](CCC(N)=O)NC(=O)[C@H](C)NC(=O)[C@H](CCCCNC(=O)COCCOCCNC(=O)COCCOCCNC(=O)CC[C@H](NC(=O)CCCCCCCCCCCCCCCCCCC(=O)O)C(=O)O)NC(=O)[C@H](CCC(=O)O)NC(=O)[C@H](CC(=O)O)NC(=O)[C@H](CC(C)C)NC(=O)[C@](C)(CC(C)C)NC(=O)[C@@H](NC(=O)[C@H](CO)NC(=O)[C@H](Cc1ccc(O)cc1)NC(=O)[C@H](CC(=O)O)NC(=O)[C@H](CO)NC(=O)[C@@H](NC(=O)[C@H](Cc1ccccc1)NC(=O)[C@@H](NC(=O)CNC(=O)[C@H](CCC(=O)O)NC(=O)C(C)(C)NC(=O)[C@@H](N)Cc1ccc(O)cc1)[C@@H](C)O)[C@@H](C)O)[C@@H](C)CC)[C@@H](C)CC)C(=O)N[C@@H](CCC(=O)O)C(=O)NCC(=O)NCC(=O)N1CCC[C@H]1C(=O)N[C@@H](CO)C(=O)N[C@@H](CO)C(=O)NCC(=O)N[C@@H](C)C(=O)N1CCC[C@H]1C(=O)N1CCC[C@H]1C(=O)N1CCC[C@H]1C(=O)N[C@@H](CO)C(N)=O [Example 56] (H-Y[Aib]EGTFTSDYSI[αMeL]LDEK([AEEA-AEEA-γGlu-C20 diacid])AQHAFIEYLIEGGPSSGAPPPS-NH2)	> 1060	0.148	0.136	0.167	10.3
CC[C@H](C)[C@H](NC(=O)[C@H](CC(C)C)NC(=O)[C@](C)(Cc1ccc(O)cc1)NC(=O)[C@@H](CCC(=O)O)NC(=O)[C@@H](NC(=O)[C@H](Cc1ccccc1)NC(=O)[C@H](CCC(=O)O)NC(=O)C(C)(C)NC(=O)[C@H](CCC(N)=O)NC(=O)[C@H](C)NC(=O)[C@H](CCCCNC(=O)COCCOCCNC(=O)COCCOCCNC(=O)CC[C@H](NC(=O)CCCCCCCCCCCCCCCCCCC(=O)O)C(=O)O)NC(=O)[C@H](CCC(=O)O)NC(=O)[C@H](CC(=O)O)NC(=O)[C@H](CC(C)C)NC(=O)[C@](C)(CC(C)C)NC(=O)[C@@H](NC(=O)[C@H](CO)NC(=O)[C@H](Cc1ccc(O)cc1)NC(=O)[C@H](CC(=O)O)NC(=O)[C@H](CO)NC(=O)[C@@H](NC(=O)[C@](C)(Cc1ccccc1F)NC(=O)[C@@H](NC(=O)CNC(=O)[C@H](CCC(=O)O)NC(=O)C(C)(C)NC(=O)[C@@H](N)Cc1ccc(O)cc1)[C@@H](C)O)[C@@H](C)O)[C@@H](C)CC)[C@@H](C)CC)C(=O)N[C@@H](CCC(=O)O)C(=O)NCC(=O)NCC(=O)N1CCC[C@H]1C(=O)N[C@@H](CO)C(=O)N[C@@H](CO)C(=O)NCC(=O)N[C@@H](C)C(=O)N1CCC[C@H]1C(=O)N1CCC[C@H]1C(=O)N1CCC[C@H]1C(=O)N[C@@H](CO)C(N)=O [Example 222] (H-Y[Aib]EGT[αMePhe(2-F)]TSDYSI[αMeL]LDEK([AEEA-AEEA-γGlu-C20 diacid])AQ[Aib]EFI[dE][αMeY]LIEGGPSSGAPPPS-NH2; N-terminus assumed)	71.3	0.0495	0.0248	0.0306	3.59
CC[C@H](C)[C@H](NC(=O)[C@H](CCCCN)NC(=O)[C@H](CC(=O)O)NC(=O)[C@H](CC(C)C)NC(=O)[C@H](CC(C)C)NC(=O)[C@@H](NC(=O)[C@H](CO)NC(=O)[C@H](Cc1ccc(O)cc1)NC(=O)[C@H](CC(=O)O)NC(=O)[C@H](CO)NC(=O)[C@@H](NC(=O)[C@H](Cc1ccccc1)NC(=O)[C@@H](NC(=O)CNC(=O)[C@H](CCC(=O)O)NC(=O)C(C)(C)NC(=O)[C@@H](N)Cc1c[nH]cn1)[C@@H](C)O)[C@@H](C)O)[C@@H](C)CC)C(=O)N[C@@H](C)C(=O)N[C@@H](CCC(N)=O)C(=O)N[C@@H](CCCCNC(=O)COCCOCCNC(=O)COCCOCCNC(=O)CC[C@H](NC(=O)CCCCCCCCCCCCCCCCCCC(=O)O)C(=O)O)C(=O)N[C@@H](C)C(=O)N[C@@H](Cc1ccccc1)C(=O)N[C@H](C(=O)N[C@@H](CCC(=O)O)C(=O)N[C@@H](Cc1ccc(O)cc1)C(=O)N[C@@H](CC(C)C)C(=O)N[C@@H](CC(C)C)C(=O)N[C@@H](CCC(=O)O)C(=O)NC(C)(C)C(=O)NCC(=O)N1CCC[C@H]1C(=O)N[C@@H](CO)C(=O)N[C@@H](CO)C(=O)NCC(N)=O)[C@@H](C)CC [Example 17] (H-H[Aib]EGTFTSDYSILLDKIAQK([AEEA-AEEA-γGlu-C20 diacid])AFIEYLLE[Aib]GPSSG-NH2; N-terminus assumed)	261	0.606	0.152	5.81	7.63
CC[C@H](C)[C@H](NC(=O)[C@H](CC(C)C)NC(=O)[C@H](Cc1ccc(O)cc1)NC(=O)[C@@H](CCC(=O)O)NC(=O)[C@@H](NC(=O)[C@H](Cc1ccccc1)NC(=O)[C@H](CCC(=O)O)NC(=O)C(C)(C)NC(=O)[C@H](CCC(N)=O)NC(=O)[C@H](C)NC(=O)[C@H](CCCCNC(=O)COCCOCCNC(=O)COCCOCCNC(=O)CC[C@H](NC(=O)CCCCCCCCCCCCCCCCCCC(=O)O)C(=O)O)NC(=O)[C@H](CCC(=O)O)NC(=O)[C@H](CC(=O)O)NC(=O)[C@H](CC(C)C)NC(=O)[C@](C)(CC(C)C)NC(=O)[C@@H](NC(=O)[C@H](CO)NC(=O)[C@@H](NC(=O)[C@H](CC(=O)O)NC(=O)[C@H](CO)NC(=O)[C@@H](NC(=O)[C@](C)(Cc1ccccc1F)NC(=O)[C@@H](NC(=O)CNC(=O)[C@H](CCC(=O)O)NC(=O)C(C)(C)NC(=O)[C@@H](N)Cc1ccc(O)cc1)[C@@H](C)O)[C@@H](C)O)C(C)C)[C@@H](C)CC)[C@@H](C)CC)C(=O)N[C@@H](CCC(=O)O)C(=O)NCC(=O)NCC(=O)N1CCC[C@H]1C(=O)N[C@@H](CO)C(=O)N[C@@H](CO)C(=O)NCC(=O)N[C@@H](C)C(=O)N1CCC[C@H]1C(=O)N1CCC[C@H]1C(=O)N1CCC[C@H]1C(=O)N[C@@H](CO)C(N)=O [Example 191] (H-Y[Aib]EGT[αMePhe(2-F)]TSDVSI[αMeL]LDEK([AEEA-AEEA-γGlu-C20 diacid])AQ[Aib]EFI[dE]YLIEGGPSSGAPPPS-NH2)	348	0.144	0.0356	0.0645	4.52
CC[C@H](C)[C@H](NC(=O)[C@H](CC(C)C)NC(=O)[C@H](Cc1ccc(O)cc1)NC(=O)[C@H](CCCC(=O)O)NC(=O)[C@@H](NC(=O)[C@H](Cc1ccccc1)NC(=O)[C@H](CCC(=O)O)NC(=O)C(C)(C)NC(=O)[C@H](CCC(N)=O)NC(=O)[C@H](C)NC(=O)[C@H](CCCCNC(=O)COCCOCCNC(=O)COCCOCCNC(=O)CC[C@H](NC(=O)CCCCCCCCCCCCCCCCCCC(=O)O)C(=O)O)NC(=O)[C@H](CCC(=O)O)NC(=O)[C@H](CC(=O)O)NC(=O)[C@H](CC(C)C)NC(=O)[C@](C)(CC(C)C)NC(=O)[C@@H](NC(=O)[C@H](CO)NC(=O)[C@H](Cc1ccc(O)cc1)NC(=O)[C@H](CC(=O)O)NC(=O)[C@H](CO)NC(=O)[C@@H](NC(=O)[C@](C)(Cc1ccccc1F)NC(=O)[C@@H](NC(=O)CNC(=O)[C@H](CCC(=O)O)NC(=O)C(C)(C)NC(=O)[C@@H](N)Cc1ccc(O)cc1)[C@@H](C)O)[C@@H](C)O)[C@@H](C)CC)[C@@H](C)CC)C(=O)N[C@@H](CCC(=O)O)C(=O)NCC(=O)NCC(=O)N1CCC[C@H]1C(=O)N[C@@H](CO)C(=O)N[C@@H](CO)C(=O)NCC(=O)N[C@@H](C)C(=O)N1CCC[C@H]1C(=O)N1CCC[C@H]1C(=O)N1CCC[C@H]1C(=O)N[C@@H](CO)C(N)=O [Example 147] (H-Y[Aib]EGT[αMePhe(2-F)]TSDYSI[αMeL]LDEK([AEEA-AEEA-γGlu-C20 diacid])AQ[Aib]EFI[Aad]YLIEGGPSSGAPPPS-NH2)	64.9	0.0981	0.0527	0.0304	4.47
